Legend:
[1] = Experimental: The nicotine solution used for nicotine treatment contains 0.05 milligram of nicotine (free base) per milliliter of solution ([…]). The active mesh nebulizer activates the active mesh for a single inhalation period of 3 seconds (0.05 minute) to deliver the dose of nicotine to the patient.
The nicotine solution used for nicotine treatment contains 0.5 milligram of nicotine (free base) per milliliter of solution (0.5 mg/ml). The active mesh nebulizer activates the active mesh for a single inhalation period of 3 seconds (0.05 minute) to deliver the dose of nicotine to the patient.
The nicotine solution used for nicotine treatment contains 0.01 milligram of nicotine (free base) per milliliter of solution (0.01 mg/ml). The active mesh nebulizer activates the active mesh for a single inhalation period of 3 seconds (0.05 minute) to deliver the dose of nicotine to the patient.
The hypothetical patient receives the nicotine dose at a regular interval (e.g., about every 2 hours) for a weight monitoring period (e.g., about 2 months in the present hypothetical example), after which the hypothetical patient is weighed to determine the effect of the nebulized nicotine solution on the hypothetical patient's weight.

Remark: listed apart in the source

## CN1CCCC1c1cccnc1 (stereo not shown) [nicotine]
[1]; Example 1: patient, 2-pack per day smoker, 0.0005 mg dose (0.2 ml/min, 0.05 mg/ml, 3 seconds) by inhalation approximately every two hours
  management of nicotine cravings: sufficient to manage nicotine cravings
[1]; Example 1: patient, 2-pack per day smoker, 0.0005 mg dose by inhalation approximately every two hours
  patient's weight versus weight when smoking cigarettes: holding the patient's weight at the same level as when the patient was smoking cigarettes
[1]; Example 2: patient, 2-pack per day smoker, 0.005 mg dose (0.2 ml/min, 0.5 mg/ml, 3 seconds) by inhalation
  lethargy, or lassitude: sufficiently large to produce lethargy, or lassitude
[1]; Example 3: hypothetical patient, 0.01 mg/ml solution, 0.2 ml/min, 3 seconds, about every 2 hours for about 2 months
  effect on patient's weight: has lost weight
0.5 mg nicotine/ml (0.05%), single inhalation plume, 0.2 ml/minute for 10 seconds, according to theory and belief
  period with no desire for further nicotine inhalation: 2 to 3 h
1/40 mg nicotine/ml (0.025% nicotine), 0.2 ml/min, nebulization time 10 seconds, according to theory and belief
  period of nicotine satiety (no desire for further nicotine inhalation): at least two hours
In vivo
  time to brain response: less than 10 seconds
